From patent US5514662A, “Use of amphotericin B derivatives as protease inhibitors” (priority 1991, dated 1996)

Columns and labels:
[1] = test system: AZT-resistant strains; assay: Infection of PBMCs by AZT-resistant HIV-1; type: cell-based; details: 10 μM, RT activity after 10 days
Experimental: PBMCs were infected under the conditions described above in the general procedures, with various HIV-1 isolates derived from patients, or identified as resistant to AZT. The anti-viral effect of DABF-AmB was determined by measuring the RT activity in the supernatants after 10 days of culture.

[2] = biological target: protease p10 (Human immunodeficiency virus type 1 (BRU ISOLATE), UniProt P03367); assay: Activity on recombinant protease p10; type: biochemical; details: 1 μM for DABF-AmB
Experimental: DABF-AmB was tested, at a concentration of 1 μM, on various proteases (papain, chymotrypsin, kallicrein, leucocyte elastase, cathopsin D and recombinant protease p10) under conditions and in the presence of substrates appropriate for each of the proteases tested.

[3] = test system: LTR of HIV; assay: Early phases of HIV infection: transactivation of LTR-LacZ in CD4 HeLa cells (blue colonies); type: cell-based, HIV-1; details: 10 μM, 24 hours after infection
Experimental: HeLa cells transfected with the CD4 gene and capable of being infected by HIV, carrying the bacterial gene LacZ placed under the control of the LTR of HIV ROCANCOURT et al., J. Virol., 64:2660-2668, (1990)!, were infected with HIV-1BRU. […] This detection was carried out after fixing the cells by incubating for one hour in-the presence of 5-bromo-4-chloro-3-indoyl-β-D-[…] and enzyme substrate.

[4] = test system: LAV/BRU strain of HIV-1; assay: Reverse transcriptase activity in supernatants of HIV-1 infected Jurkat and CEM cells; type: cell-based
Experimental: (§1) The T cells (Jurkat and CEM) used are very permissive to HIV infection. They are cultured in RPMI 1640 medium supplemented with 10% foetal calf serum, 2 mM of glutamine and a mixture of penicillin and streptomycin. The peripheral blood mononuclear cells are obtained from blood from healthy donors, isolated on a Ficoll Hypaque gradient and stimulated with 10 μg/ml of phytohaemagglutinin A (PHA), for two days, in RPMI 1640 medium supplemented, prior to the infection by HIV, with amikacin and vancomycin (10 mg/ml), polybrene (1 mg/ml) and anti-interferon gamma serum (5 U/ml). After infection, the PBMCs are cultured (10^5 per well) in flat-bottomed 96-well plates in the same RPMI 1640 medium (200 μl per well).
Infectious preparations of the LAV/Bru strain of HIV-1 are obtained from chronically infected CEM cell (clone 13) culture supernatants filtered through a 0.45-μm filter.
For the infection, fresh Jurkat or CEM type cells are centrifuged and the pellet is incubated for 2 hours at 37° C. with the viral preparation (10000 cpm of reverse transcriptase activity/10^6 cells, which corresponds to a multiplicity of infection of 0.04 to 0.1). The cells are then washed and resuspended (0.5×10^6/ ml) in fresh culture medium. Reverse transcriptase activity is determined at specific times after the infection, using the acellular infected cell supernatant.
The reverse transcriptase activity is determined at the indicated times using the culture supernatant, according to the procedure described by REY et al., Biochem. Res. Comm. 121, 126-133 (1984).
The Jurkat and CEM type T cells are infected with the LAV/BRU strain of HIV-1.
Viral infection and replication are monitored by measuring the reverse transcriptase activity in the culture supernatants.
To measure the anti-HIV activity of DABF-AmB, infected cells are cultured in the presence of increasing doses (between 0.1 μM and 100 μM) of the product; […] kept constant during the infection by carrying out a one half dilution, every 3 days, of the growing cells in fresh medium containing the desired concentration.
The corresponding results are illustrated in FIGS. 3b and 3d: the reverse transcriptase activity measured on the 8th day of the viral infection is represented on the y axis and the DABF-AmB concentration on the x axis.

[5] = test system: gp120; assay: Membrane expression of gp120 in HIV-1 infected Jurkat and CEM cells; type: cell-based; details: 10 μM continuous, both cell lines, 8th day
Experimental: Membrane expression of CD4 and gp120 is measured by means of the monoclonal antibodies OKT4 (0,5 μg/ml), 110-4 (2 μg/ml) respectively, which are stained using a […].
The fluorescence is measured by means of a FACSTAR cell counter (BECTON DICKINSON, MOUNTAIN VIEW, Calif.). The results are expressed as mean fluorescence intensity.
The anti-gpl10 monoclonal antibody 110-4 (GENETIC SYSTEMS CORP., Seattle, Wash.) also recognizes gP120 at the surface of the T cells.
Immunofluorescence analyses are carried out on the 8th day of the infection in order to verify whether the inhibition of HIV replication by DABF-AmB results in 10 a reduced membrane expression of viral antigens.

[6] = test system: viral antigen p24; assay: Secretion of p24 in HIV-1 infected PBMCs; type: cell-based; details: Human immunodeficiency virus 1, PBMC, read-out: inhibition of synthesis of p24
Experimental: as §1
The PBMCs cells (2×10^6 /ml) are infected with the same viruses and under the same conditions as the Jurkat or CEM cells. […]
The viral antigen p24 was quantified in the infected-cell supernatant by radioimmunological assay using the procedure recommended by the manufacturer (ABBOTT, Diagnostics Division).
PBMCs isolated from healthy individuals are infected with HIV-1. The production of antigen p24 as well as the reverse transcriptase activity can be detected in the supernatants of cultures infected 3 days after the infection. […]
The effect of DABF-AmB on the reverse transcriptase activity and on the secretion of p24 is evaluated on the 6th day.

## C[C@@H]1[C@H](O)[C@@H](C)/C=C/C=C/C=C/C=C/C=C/C=C/C=C/[C@H](O[C@@H]2O[C@H](C)[C@@H](O)[C@H](NCC(=O)[C@@H](O)[C@@H]3OC(c4ccccc4)OC[C@H]3O)[C@@H]2O)C[C@@H]2O[C@](O)(C[C@@H](O)C[C@@H](O)[C@H](O)CC[C@@H](O)C[C@@H](O)CC(=O)O[C@H]1C)C[C@H](O)[C@H]2C(=O)O (stereo partly drawn) [DABF-AmB, 1-deoxy-1-amino-4,6-O-benzylidene-D-fructosyl-AmB]
[1]
  inhibition of infection of PBMC: this inhibition is also produced in the case of AZT-resistant strains
[2]
  inhibition of protease p10: does not inhibit
[3]
  inhibition of appearance of blue colonies: completely inhibits
[4]; 10 μM added during the 2-hour inoculation stage
  inhibition of reverse transcriptase activity: does not bring about any significant inhibition
[4]; 10 μM added prior to infection (24 hours pretreatment)
  inhibition of reverse transcriptase activity: does not bring about any significant inhibition
[4]; Human immunodeficiency virus 1, 192 h, Jurkat and CEM cells, 10 μM, 8th day, N=4
  inhibition at 10 µM: 88%
[4]; Human immunodeficiency virus 1, 192 h, Jurkat and CEM cells, 8th day, read-out: concentration from which inhibition of reverse transcriptase activity is observed
  minimal effective concentration: ≥ 5 µM
[4]; Jurkat and CEM cells, concentrations below 1 μM
  inhibition of reverse transcriptase activity (in words): No significant inhibition
[5]
  membrane expression of gp120: substantially reduces
[6]
  inhibition at 10 µM: 88 ± 6%
